Reference: ChEMBL document CHEMBL3351985, “Prophylactic treatment of asthma by an ozone scavenger in a mouse model” (2015)
Active and inactive are the calls of the source. The rule behind the calls is not given here.

Legend:
Mus musculus [1] = organism: Mus musculus; test: Antiasthmatic activity in ovalbumin-sensitized BALB/c mouse allergy model assessed as reduction in peribronchial inflammatory cell infiltration compound treated at 4 g through inhalation prior to ovalbumin challenge by hematoxylin eosin staining method relative to control; format: functional; set-up: scale not given: the % may be the effect or the level left
Mus musculus [2] = organism: Mus musculus; test: Antiasthmatic activity in ovalbumin-sensitized BALB/c mouse allergy model assessed as reduction in neutrophil count compound treated at 4 g through inhalation prior to ovalbumin challenge (reference value: 43.1 /mm3); format: functional
Mus musculus [3] = organism: Mus musculus; test: Antiasthmatic activity in ovalbumin-sensitized BALB/c mouse allergy model assessed as reduction in epithelial cell mucus metaplasia compound treated at 4 g through inhalation prior to ovalbumin challenge by hematoxylin eosin staining method relative to control; format: functional
Mus musculus [4] = organism: Mus musculus; test: Antiasthmatic activity in ovalbumin-sensitized BALB/c mouse allergy model assessed as reduction in lung aldehyde level compound treated at 4 g through inhalation prior to ovalbumin challenge; format: functional, organism-based
Mus musculus [5] = organism: Mus musculus; test: Antiasthmatic activity in ovalbumin-sensitized BALB/c mouse allergy model assessed as reduction in eosinophil count compound treated at 4 g through inhalation prior to ovalbumin challenge (reference value: 11 /mm3); format: functional
Mus musculus [6] = organism: Mus musculus; test: Antiasthmatic activity in ovalbumin-sensitized BALB/c mouse allergy model assessed as reduction in BAL aldehyde level compound treated at 4 g through inhalation prior to ovalbumin challenge; format: functional, organism-based
Mus musculus [7] = organism: Mus musculus; test: Antiasthmatic activity in ovalbumin-sensitized BALB/c mouse allergy model assessed as reduction in sub-epithelial fibrosis compound treated at 4 g through inhalation prior to ovalbumin challenge by hematoxylin eosin staining method relative to control; format: functional; set-up: scale not given: the % may be the effect or the level left
Mus musculus [8] = organism: Mus musculus; test: Antiasthmatic activity in ovalbumin-sensitized BALB/c mouse allergy model assessed as reduction in occlusion of the airway diameter by mucus compound treated at 4 g through inhalation prior to ovalbumin challenge by hematoxylin eosin staining method relative to control; format: functional
Mus musculus [9] = organism: Mus musculus; test: Antiasthmatic activity in ovalbumin-sensitized BALB/c mouse allergy model assessed as reduction in perivascular inflammatory cell infiltration compound treated at 4 g through inhalation prior to ovalbumin challenge by hematoxylin eosin staining method relative to control; format: functional; set-up: scale not given: the % may be the effect or the level left
Mus musculus [10] = organism: Mus musculus; test: Antiasthmatic activity in ovalbumin-sensitized BALB/c mouse allergy model assessed as reduction in spleen tissue aldehyde level compound treated at 4 g through inhalation prior to ovalbumin challenge; format: functional, organism-based

Q: What does the source list for `C=C(C)[C@H]1CC=C(C)CC1` [D-LIMONENE]?
A: Activity (Mus musculus [1]): 40%; Activity (Mus musculus [2]): 29.8 /mm3; fold change (FC) (Mus musculus [3]): 5; Activity (Mus musculus [4]): Active; Activity (Mus musculus [5]): 12.6 /mm3; Activity (Mus musculus [6]): Active; Activity (Mus musculus [7]): 20%; fold change (FC) (Mus musculus [8]): 2; Activity (Mus musculus [9]): 40%; Activity (Mus musculus [10]): Active
